Assay results as given in patent publication US12172976B2, “Delocalized lipophilic cation compounds and methods of use thereof” (The Board of Trustees of the Leland Stanford Junior …, priority 2019, dated 2024).

Key:
[1] = UV absorbance of the compounds; assay type: physicochemical; conditions: 31 μM in water
Procedure: The absorbance and fluorescence of delocalized lipophilic cation compounds (1) through (11) were measured. UV absorbance of the compounds was recorded on an Agilent 8453 UV spectrophotometer at a concentration of 31 μM in water. Fluorescence was recorded on a Fluoromax-3 spectrafluorometer (Jobin Yvon) at a concentration of 7.8 μM in water.

[2] = tested on: bladder cancer T24 cells, non-small cell lung cancer (NSCLC) H838 cells, normal HIN-3T3 cells; experiment: In vitro cytotoxicity, anti-tumor activity and selectivity against normal cells; assay type: cell-based; conditions: Homo sapiens, NCI-H838, 72 h, 3 days
Procedure: (§1) The cytotoxicity of compounds (1) through (11) was tested in vitro with bladder cancer T24 cells, non-small cell lung cancer (NSCLC) H838 cells, and normal HIN-3T3 cells (FIG. 4). All test cell lines were incubated in 96-well plates overnight at a density of 3000 cells/well. The culture medium was replaced with 200 μL of culture medium, into which the testing compound was dispersed at various concentrations (1.95-500 μM). After incubating for 3 days, the viable cell numbers were checked and directly counted under microscopy (10×). A minimum of 1 mm×1 mm area was counted from each of at least three widely separated regions of cell culture. The cell proliferation rate was calculated by the following formula: cell proliferation rate (%)=(average cell number of sample wells/average cell number of control wells)×100%. The intact culture medium was evaluated as a control.

[3] = Fluorescence quantum yield against Rhodamine 6G; assay type: physicochemical; conditions: in ethanol, Rhodamine 6G as reference
Procedure: The quantum yield of compounds (1) through (11) was measured in ethanol using Rhodamine 6G as a reference.
The fluorescence quantum yields of the compounds were determined using the formula (ϕ=ϕs(Fx/Fs) (As/Ax), where ϕ is quantum yield, F is the integrated area under the corrected emission spectrum, and A is the absorbance at the excitation wavelength; the subscripts x and s refer to F16s and the standard, respectively. Rhodamine 6G (OF 95%) in ethanol was used as the standard. All compounds and Rhodamine 6G were dissolved in ethanol in 5 different concentrations with the absorbance lower than 0.1 at 425 nm. The corresponding 5 different fluorescences of the compounds and Rhodamine 6G were excited at 425 nm and the emission spectra from 450 nm to 650 nm were obtained for the following integrated area measurement. All data was analyzed using Origin Pro 9.0 software (OriginLab, Northampton, Massachusetts, USA) to get the compounds' final quantum yield.

mitochondria = experiment: Mitochondrial targeting, fluorescence microscopy of stained cells; assay type: cell-based; conditions: NIH-353, H838, and T24 cell lines
Procedure: The mitochondrial targeting properties of compounds (1) through (11) were tested. 3 μM compounds were added to cells grown in a MatTek glass-bottom culture dishes (Ashland, Massachusetts) for 1 h and washed with PBS (phosphate-buffered saline) three times. After replacement of the medium, cells were imaged using a fluorescent microscope (Zeiss) with a 63× oil or 20× objective lens (excited in the GFP channel).
Mitotracker@ Red (Molecular Probes) and Hoechst (Thermo Scientific) were added to the medium to stain the mitochondria and nuclei, following the manufacturer's procedures. Cells were photographed using a 63× oil or 20× objective lens.

H838 cells = experiment: Dependence of mitochondrial accumulation on mitochondrial membrane potential; assay type: cell-based
Procedure: To examine whether the mitochondrial membrane potential (ΔΨm) causes the accumulation of delocalized lipophilic cation compounds in mitochondria, H838 cells were preincubated with medium containing high concentrations of K^+ ions (i.e. 137 mM), to depolarize the mitochondrial membrane, or low concentrations of K^+ ions (i.e. 3 mM). Next, 3 μM of compound (3) was added and the cells were incubated for 30 minutes.

bladder cancer T24 cells = experiment: In vitro cytotoxicity, T24; assay type: cell-based; conditions: Homo sapiens, T-24, 72 h, 3 days
Procedure: as §1

[4] = tested on: non-small cell lung cancer (NSCLC) H838 cells; experiment: In vitro cytotoxicity, H838; assay type: cell-based; conditions: Homo sapiens, NCI-H838, 72 h, 3 days
Procedure: as §1

H2228 cell line = experiment: In vitro cytotoxicity, H2228; assay type: cell-based
[5] = tested on: NSCLC cell lines HCC827, H838, HCC4006, H1693, H2030, H2228, A549, H1437, H1944; experiment: Cytotoxicity in nine lung cancer cell lines; assay type: cell-based; conditions: all nine NSCLC cell lines
[6] = tested on: subcutaneous HCC827 tumor; experiment: In vivo fluorescent imaging of mice bearing HCC827 tumors; design: species or system nude mice; conditions: 15 mg/kg intravenous
Procedure: In vivo studies on the effect of compound (3) on the tumor growth and body mass of a mouse model were conducted. Female athymic nude mice (nu/nu) from 4-6 weeks old were obtained from Charles River Laboratories (Boston, MA, USA) and kept under sterile conditions. 5×10^6 human lung adenocarcinoma HCC827 cells suspended in 150 μL of PBS were inoculated subcutaneously in the right shoulder of the nude mice. When the tumors reached 3˜5 mm in diameter, the tumor bearing mice were administered i.v. with compound (3) (dissolved in 150 μL PBS, with 2 μL DMSO) at 15 mg/kg on days 1, 3, 5, 7, 9, 11, 13, 15, 17, 19, 21. Correspondingly, untreated tumor-bearing mice serving as controls were administered i.v. with 150 μL 1×PBS pH 7.4 (with 2 μL DMSO) on the same days as the treated mice. Ten mice were used for each group. Length and width of the elliptical tumors were measured by Vernier caliper after every intravenous injection. Modified ellipsoid formula ½ (Length×Width^2) was used to calculate the tumor size. The tumor growth was calculated with the ratio of final volume (FV) minus initial volume (IV) to initial volume (IV). In vivo fluorescent imaging was taken 40 minutes and 2 hours after the injection of compound (3) 15 mg/kg. IVIS spectrum instrument was used. Excitation wavelength was set at 450 nm. Collection wavelength was set at 550 nm, using a 3s acquisition time. […]

[7] = tested on: human lung adenocarcinoma HCC827 xenograft; experiment: Tumor growth and body weight in the HCC827 xenograft; assay type: in vivo, nude mice
Procedure: In vivo studies on the effect of compound (3) on the tumor growth and body mass of a mouse model were conducted. Female athymic nude mice (nu/nu) from 4-6 weeks old were obtained from Charles River Laboratories (Boston, MA, USA) and kept under sterile conditions. 5×10^6 human lung adenocarcinoma HCC827 cells suspended in 150 μL of PBS were inoculated subcutaneously in the right shoulder of the nude mice. When the tumors reached 3˜5 mm in diameter, the tumor bearing mice were administered i.v. with compound (3) (dissolved in 150 μL PBS, with 2 μL DMSO) at 15 mg/kg on days 1, 3, 5, 7, 9, 11, 13, 15, 17, 19, 21. Correspondingly, untreated tumor-bearing mice serving as controls were administered i.v. with 150 μL 1×PBS pH 7.4 (with 2 μL DMSO) on the same days as the treated mice. Ten mice were used for each group. Length and width of the elliptical tumors were measured by Vernier caliper after every intravenous injection. Modified ellipsoid formula ½ (Length×Width^2) was used to calculate the tumor size. The tumor growth was calculated with the ratio of final volume (FV) minus initial volume (IV) to initial volume (IV).

carcinoma cell = experiment: Flow cytometry of carcinoma cell growth; assay type: cell-based
[8] = Photostability under continuous excitation; assay type: physicochemical; conditions: 10 μM in water, continuously excited for 50 mins
Procedure: A 75 W Xenon arc lamp (Hamamatsu, San Jose, California, USA) with 420-470 nm bond pass filter (MF445-45, Thorlabs, Newton, New Jersey, USA) was used as the light source for the F16 derivatives, Rhodamine 6G, and Mitotracker® Green. Analogously, a 540-580 nm bond pass filter (MF559-34, Thorlabs, Newton, New Jersey, USA) was used to excite Mitotracker Red. All the dyes were dissolved in water at a 10 μM concentration in 700 μL micro quartz cuvettes (10 mm, Sigma-Aldrich, St. Louis, MO, USA). They were continuously excited for 50 mins. During this period, the fluorescence intensity was measured every 5 mins at 525 nm (F16s, Rhodamine 6G, Mitotracker Green) or 600 nm (Mitotracker Red). Relative fluorescence intensity change was monitored over time.

C[n+]1ccc(/C=C/c2c[nH]c3ccc(Br)cc23)cc1 [(5)]
absorption peak / absorption maxima [1]: about 450 nm
IC50 [2]: 0.36 to 6.2 µM

Cc1cc(Br)cc2c(/C=C/c3cc[n+](C)cc3)c[nH]c12 [Compound (3)]
quantum yield [3]: around 20%
colocalization with MitoTrack (mitochondria): colocalization
accumulation in the mitochondria, low K+ (H838 cells; 3 μM, 30 minutes, preincubation with 3 mM K+): more accumulation
accumulation in the mitochondria, high K+ (H838 cells; 3 μM, 30 minutes, preincubation with 137 mM K+): less accumulation
mitochondrial staining after addition of FCCP (H838 cells; FCCP added to the cells): immediately decayed and diffused into the cytoplasm
IC50 [2]: 0.36 to 6.2 µM
IC50 (bladder cancer T24 cells): 820 nM
IC50 [4]: 360 nM
anti-cancer cell to anti-normal cell ratio (H2228 cell line; H2228 against 3T3): around 225
IC50 (H2228 cell line; Homo sapiens, NCI-H2228, H2228 cell line): 48.9 nM
ATCA (antitumor activity) in NSCLC cell lines [5]: impressively high ATCA
tumor to background ratio ([6]; 2 h post injection): ~2
organ accumulation ([6]; compared with liver, spleen, heart, lung, and brain): Tumor, kidney, bone, stomach, bowel, pancreas and skin accumulated more
tumor volume compared to PBS treated group ([7]; 15 mg/kg i.v. on days 1 to 21 every other day, 21 days PI, p=0.0426): decreased dramatically
bodyweight between control and treated group ([7]; 15 mg/kg i.v., p=0.477): no significant difference
tumor pathologic section H&E staining ([7]; HCC827 tumor of treated mice): caused tumor inflammatory cell infiltration, fibrous tissue proliferation, and cell apoptosis
carcinoma cell growth by flow cytometry (carcinoma cell): inhibited carcinoma cell growth in a time-dependent manner

Cc1ccc2[nH]c(C)c(/C=C/c3cc[n+](C)cc3)c2c1 [(9)]
absorption peak / absorption maxima [1]: about 450 nm
quantum yield [3]: around 20%
photostability [8]: bleached relatively easily

C[n+]1ccc(/C=C/c2c(Cl)[nH]c3ccccc23)cc1 [(8)]
photostability [8]: bleached relatively easily

C[n+]1ccc(/C=C/c2c[nH]c3c2ccc2ccccc23)cc1 [(2)]
quantum yield [3]: around 12%
IC50 [2]: 0.36 to 6.2 µM

Cn1cc(/C=C/c2cc[n+](C)cc2)c2cc(F)ccc21 [(1)]
quantum yield [3]: around 12%
photostability [8]: bleached relatively easily

C[n+]1ccc(/C=C/c2c[nH]c3ccc(F)cc23)cc1 [(7)]
quantum yield [3]: around 20%

C[n+]1ccc(/C=C/c2c[nH]c3ccc(C#N)cc23)cc1 [Compound (4)]
quantum yield [3]: 49.1%
IC50 [2]: 0.36 to 6.2 µM
